# Results published in article PMC8849047, “Salicylate metal-binding isosteres as fragments for metalloenzyme inhibition” (Chemical Science, 2022).
# Read-outs that look alike come from different tables or passages of the source.
# Assays:
# [1] = format: physicochemical
# Text: This was confirmed by computationally calculated physicochemical data (Tables S2 and S3 ^†).
# [2] = biological target: T1, Recombinant human glyoxalase I (GLO1) (Homo sapiens, UniProt Q04760); test: GLO1 enzyme inhibition assay (absorbance at 240 nm); format: biochemical; details: for inhibition at 100 µM: read-out: %inhib GLO1
# T1 construct: purchased R&D Systems 4959-GL
# T1 sequence (Q04760 2-184 limits assumed): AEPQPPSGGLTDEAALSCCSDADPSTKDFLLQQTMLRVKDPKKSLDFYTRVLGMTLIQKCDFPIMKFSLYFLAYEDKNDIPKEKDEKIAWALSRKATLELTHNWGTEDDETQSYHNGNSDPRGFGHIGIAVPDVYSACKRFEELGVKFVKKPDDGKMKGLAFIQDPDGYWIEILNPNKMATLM
# Procedure: To evaluate if the salicylate MBIs could serve as starting points for future FBDD campaigns, the MBI library was screened for inhibitory activity against human glyoxalase I (GLO1) at fragment concentrations of 100 μM (Table 2). […] Recombinant human glyoxalase I (GLO1) was purchased from R&D Systems (catalog #4959-GL). Assays were carried out in 0.1 M sodium phosphate, pH 7.0 buffer, utilizing 96-well clear UV plates (Corning UV Transparent Microplates, catalog #3635). A fresh solution of GSH (100 mM) and methylglyoxal (MG) (100 mM) was prepared in Millipore grade water. […] The substrate mixture was vortexed vigorously for 45 s and then allowed to sit at room temperature for 15 min. The initial well volume was 50 μL containing GLO1 (40 ng) and inhibitor. This protein and inhibitor mixture was incubated for 15–20 min prior to addition of the substrate. […] The enzyme activity was measured utilizing a Biotek Synergy HT or H4 plate reader by measuring absorbance at 240 nm every 1 min for a duration of 8 min. The rate of absorbance increase was compared for samples versus controls containing no inhibitor (set at 100% activity). The absorbance reading for background wells containing DMSO, buffer, and substrate (no enzyme or inhibitor) was subtracted from the experimental wells. […] Dose-response curves were generated, analysed and fitted to obtain IC50 values (see ESI ^†).
# 5. Single Point screening
# Single point screening of salicylate MBI library against GLO1 at 100 µM inhibitor concentration. Chugai 1 (4,6-diphenyl-N-hydroxypyridone) 4 as positive control. […]
# 6. Dose-response curves against GLO1
# The raw data from the GLO1 assay was background corrected and normalized from 0 to 100 with 100 being the largest mean of each dataset. A variable slope log-logistic model was chosen for curve fitting.
# The corresponding datapoints are shown as empty bullets and were not included in the curve-fitting. The resulting restricted datasets were fitted according to a literature procedure setting the lower limit of the dose-response curve to zero. This compensates for the loss of information caused by trimming of the dataset. 5,6
# Figure S7. Dose-response curve of 11 against GLO1.
# [3] = biological target: T2, Human recombinant MMP-3 catalytic domain (Homo sapiens, UniProt P08254); test: MMP-3 enzyme inhibition assay (chromogenic substrate, 412 nm); format: biochemical; details: standard deviation in parentheses, read-out: %inhib MMP-3
# T2 construct: Human recombinant MMP-3 catalytic domain was purchased; purchased ENZO Life Sciences BML-SE109-9090
# T2 sequence (P08254 100-272 limits assumed): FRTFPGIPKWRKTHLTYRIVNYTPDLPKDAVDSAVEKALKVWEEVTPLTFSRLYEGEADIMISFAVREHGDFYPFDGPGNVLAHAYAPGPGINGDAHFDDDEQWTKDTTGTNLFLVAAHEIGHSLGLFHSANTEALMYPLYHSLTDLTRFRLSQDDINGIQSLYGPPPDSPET
# Procedure: To probe the selectivity of the salicylate MBIs, the library was screened against matrix metalloproteinase-3 (MMP-3) at fragment concentrations of 100 μM (Table 2).
# Human recombinant MMP-3 catalytic domain was purchased from ENZO Life Sciences (catalog # BML-SE109-9090). Assays were carried out in clear Costar 96-well, half-area, flat-bottom assay plates (catalog # 80-2404). Each well contained a total volume of 100 μL including buffer (50 mM MES, 10 mM CaCl2, 0.05% Brij-35, 1 mM DNTB, pH 6.0), MMP-3 (2 U), and the fragment solution. After a 30 min incubation period at 37 °C, the reaction was initiated by the addition of 10 μL of chromogenic MMP-3 substrate (100 μM final concentration, Ac-Pro-Leu-Gly-[2-mercap-to-4-methyl-pentanoyl]-Leu-Gly-OC2H5, ENZO Life Sciences, catalog #BML-P125-0005). Absorbance was monitored at 412 nm using a Bio-Tek ELx 808 colorimetric plate reader, and measurements were recorded every minute for 10 min. The rate of absorbance increase was compared for samples versus negative controls (no inhibitor, arbitrarily set as 100% activity).
# 5. Single Point screening […]
# Figure S5. Single point screening of salicylate MBI library against MMP-3 at 100 µM inhibitor
# concentration. NNGH as positive control.
# [4] = tested on: influenza H1N1 N-terminal PA endonuclease (PAN); test: PAN endonuclease inhibition assay (fluorescent ssDNA-oligo substrate); format: biochemical; details: 100 μM; standard deviation in parentheses
# [5] = biological target: T1, Recombinant human glyoxalase I (GLO1); parameters: method as in previous studies (unpublished); details: ref previous studies (unpublished); read-out: IC50 against GLO1; cited from earlier work
# [6] = log P by potentiometric titration octanol/water (Sirius T3); log D7.4 calculated from pKa and log P; format: physicochemical
# Procedure: In addition to gaining an understanding about the metal coordinating properties of the salicylate MBIs by using [(Tp^Ph,Me)Zn(MBI)] model complexes, the physicochemical properties of the MBIs were also studied. The acidity (pKa) and lipophilicity (log P) were measured using potentiometric methods and the lipophilicity at physiological pH (log D7.4) was calculated from these two values (Table 1).[23–25]
# Physicochemical properties were determined using a Sirius T3 instrument.[23–25] […] The pKa of a compound was determined by analysing each MBI sample in triplicate using potentiometric titrations. Experiments were typically performed over a pH range of 2.0–12.0. Standard deviations were derived from fitting all three replicate experiments. For water insoluble compounds methanol was added and the obtained apparent pKa (psKa) was extrapolated to the aqueous pKa by the Yasuda–Shedlovsky procedure. log P was determined via potentiometric titrations in the presence of varying ratios of octanol and water. The presence of octanol shifts the pKa of ionizable species, and based on the shifts, a log P can be determined. Measurements for log P determination were typically performed over a pH range of 2.0–12.0. Three experiments with varying ratios of water:octanol was performed, allowing for a standard deviation to be determined from the fitting of all measurements. MBI sample sizes were ∼0.5 mg for both pKa and log P measurements.
# [7] = 100 μM, standard deviation in parentheses
Compound,aqueous solubility [1],"inhibition at 100 µM [2, 7] [%]",inhibition at 100 µM [3] [%],%inhib Endo (PAN) [4],IC50 [5] [µM],logP [6],logD ([6]; pH 7.4),"%inhib GLO1 [2, 7]","IC50 ([2]; dose-response curves, read-out: IC50 against GLO1) [µM]"
CS(=O)(=O)Nc1ccccc1-c1nc2ccccc2s1 [Compound 27],poor aqueous solubility,44,0,15 (7) %,,,,,
c1ccc2sc(-c3cccc4nc[nH]c34)nc2c1 [Compound 28],poor aqueous solubility,,,4 (8) %,,,,,
"O=C(O)c1ccccc1O [Compound 1, Salicylic acid, reference compound]",,22,8,12 (7) %,> 50,2.18,-2.4,,
Oc1ccccc1-c1nc2ccccc2s1 [Compound 11],poor aqueous solubility,94,0,21 (6) %,,,,almost complete inhibition,19.6 ± 4.7
